Measurements reported in patent US11702409B2, “Pyrazolyl derivatives useful as anti-cancer agents” (NOVARTIS AG, priority 2019, dated 2023).
pIC50: −log10 of the molar value.

Molecular target: KRasG12C (Homo sapiens (Human), UniProt P01116, G12C)
Assay: MS-based assay (% modification for a range of compound concentrations and time points)
Assay type: biochemical
Conditions: internally determined, non-labeled ligand; read-out: (kinact/KI)probe, second order rate constant for modification of KRasG12C

SMILES	kinact/KI [M⁻¹ s⁻¹]
C=CC(=O)Nc1ccc(-n2c(C)c(-c3c(C)ccc4[nH]ncc34)c3cccnc32)c(F)c1 [Compound A, N-(3-fluoro-4-(2-methyl-3-(5-methyl-1H-indazol-4-yl)-1H-pyrrolo[2,3-b]pyridin-1-yl)phenyl)acrylamide, reference compound]	~5000

Molecular target: KRasG12C (M1-K169, biotinylated on the N-terminus) (Homo sapiens (Human), UniProt P01116, G12C)
Assay: Covalent competition assay (scintillation proximity assay, competition with radiolabeled covalent probe Compound B)
Assay type: binding
Conditions: covalent competition SPA assay, KRASG12C; read-out: IC50, titration of the non-labelled version of the probe
Procedure, shortened: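 Biotinylated KRasG12C (M1-K169):GDP incubated 2 h with agitation with serially diluted compounds premixed with a fixed concentration of radiolabeled covalent probe; scintillation proximity read-out of competition for covalent modification. Buffer 20 mM Tris-HCl pH 7.5, 150 mM NaCl, 0.1 mM MgCl2, 0.01% Tween-20. IC50 from 4-parameter fit.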

SMILES	pIC50
C=CC(=O)Nc1ccc(-n2c(C)c(-c3c(C)ccc4[nH]ncc34)c3cccnc32)c(F)c1 [Compound A, N-(3-fluoro-4-(2-methyl-3-(5-methyl-1H-indazol-4-yl)-1H-pyrrolo[2,3-b]pyridin-1-yl)phenyl)acrylamide, reference compound]	6.30

Same assay, conditions: in vitro KRASG12C activity; 10 nM KRasG12C:GDP, 25 nM radio-ligand and 475 nM unlabelled ligand, incubated 2 hours; read-out: Covalent Competition Assay IC50

SMILES	pIC50
C=CC(=O)N1CC2(CC(n3nc(-c4cccnc4C)c(-c4c(Cl)c(C)cc5[nH]ncc45)c3C(F)F)C2)C1 (single isomer, unassigned) [Example 84b, 1-(6-(4-(5-Chloro-6-methyl-1H-indazol-4-yl)-5-(difluoromethyl)-3-(2-methylpyridin-3-yl)-1H-pyrazol-1-yl)-2-azaspiro[3.3]heptan-2-yl)prop-2-en-1-one]	< 4.30
C=CC(=O)N1CC2(CC(n3nc(-c4ccc(CN5CCCS5(=O)=O)cc4)c(-c4c(Cl)c(C)cc5[nH]ncc45)c3C)C2)C1 (single isomer, unassigned) [Example 5a]	7.37
C=CC(=O)N1CC2(CC(n3nc(-c4ccc(C(=O)NCCOC)c(F)c4)c(-c4c(Cl)c(C)cc5[nH]ncc45)c3C)C2)C1 (single isomer, unassigned) [Example 63a]	7.06
C=CC(=O)N1CC2(CC(n3nc(-c4cc5ccncc5[nH]4)c(-c4c(Cl)c(C)cc5[nH]ncc45)c3C)C2)C1 (single isomer, unassigned) [Example 59a, 1-(6-(4-(5-chloro-6-methyl-1H-indazol-4-yl)-5-methyl-3-(1H-pyrrolo[2,3-c]pyridin-2-yl)-1H-pyrazol-1-yl)-2-azaspiro[3.3]heptan-2-yl)prop-2-en-1-one]	6.76
C=CC(=O)N1CC2(CC(n3nc(-c4ccc5c(c4)CN(C)C5)c(-c4c(Cl)c(C)cc5[nH]ncc45)c3C)C2)C1 (single isomer, unassigned) [Example 75a]	6.60
C=CC(=O)N1CC2(CC(n3nc(-c4ccc(C#N)nc4)c(-c4c(Cl)c(C)cc5[nH]ncc45)c3C)C2)C1 (single isomer, unassigned) [Example 11b]	< 4.30
C=CC(=O)N1CC2(CC(n3nc(-c4ccc5c(c4)N(C)CCO5)c(-c4c(Cl)c(C)cc5[nH]ncc45)c3C)C2)C1 (single isomer, unassigned) [Example 31b]	6.43
C=CC(=O)N1CC2(CC(n3nc(-c4cnc5c(ccn5C)c4)c(-c4c(Cl)c(C)cc5[nH]ncc45)c3C)C2)C1 (single isomer, unassigned) [Example 8a]	7.18
C=CC(=O)N1CC2(CC(n3nc(-c4cccnc4C)c(-c4c(Cl)ccc5[nH]ncc45)c3C)C2)C1 (single isomer, unassigned) [Example 89b]	4.59
C=CC(=O)N1CC2(CC(n3nc(-c4ccnc(C)c4)c(-c4c(Cl)ccc5[nH]ncc45)c3C)C2)C1 (single isomer, unassigned) [Example 28a]	5.89
C=CC(=O)N1CC2(CC(n3nc(-c4ccc(N5CCS(=O)(=O)CC5)cc4)c(-c4c(Cl)c(C)cc5[nH]ncc45)c3C)C2)C1 (single isomer, unassigned) [Example 50b, 1-(6-(4-(5-chloro-6-methyl-1H-indazol-4-yl)-3-(4-(1,1-dioxidothiomorpholino)phenyl)-5-methyl-1H-pyrazol-1-yl)-2-azaspiro[3.3]heptan-2-yl)prop-2-en-1-one]	5.37
C=CC(=O)N1CC2(CC(n3nc(-c4cnn5c4CCC5)c(-c4c(Cl)c(C)cc5[nH]ncc45)c3C)C2)C1 (single isomer, unassigned) [Example 34a]	6.08
C=CC(=O)N1CC2(CC(n3nc(-c4ccc5c(c4)CCN5C(C)=O)c(-c4c(Cl)c(C)cc5[nH]ncc45)c3C)C2)C1 (single isomer, unassigned) [Example 22a]	7.64
C=CC(=O)N1CC2(CC(n3nc(-c4ccnn4CC4CC4)c(-c4c(Cl)c(C)cc5[nH]ncc45)c3C)C2)C1 (single isomer, unassigned) [Example 45b, 1-(6-(4-(5-chloro-6-methyl-1H-indazol-4-yl)-2′-(cyclopropylmethyl)-5-methyl-1H,2′H-[3,3′-bipyrazol]-1-yl)-2-azaspiro[3.3]heptan-2-yl)prop-2-en-1-one]	< 4.30
C=CC(=O)N1CC2(CC(n3nc(-c4ccc5nn(CC(C)(C)O)cc5c4)c(-c4c(Cl)c(C)cc5[nH]ncc45)c3C)C2)C1 (single isomer, unassigned) [Example 42b]	5.92
C=CC(=O)N1CC2(CC(n3nc(-c4ccc5c(cnn5C)c4)c(-c4cc(O)ccc4Cl)c3C)C2)C1 [Example 94, 1-(6-(4-(2-chloro-5-hydroxyphenyl)-5-methyl-3-(1-methyl-1H-indazol-5-yl)-1H-pyrazol-1-yl)-2-azaspiro[3.3]heptan-2-yl)prop-2-en-1-one]	5.64
C=CC(=O)N1CC2(CC(n3nc(-c4ccc(C(=O)O)cc4)c(-c4c(Cl)c(C)cc5[nH]ncc45)c3C)C2)C1 (single isomer, unassigned) [Example 68a]	7.23

SMILES	pIC50
C=CC(=O)N1CC2(CC(n3nc(-c4cnc5c(c4)ncn5C)c(-c4c(Cl)c(C)cc5[nH]ncc45)c3C)C2)C1 (single isomer, unassigned) [Example 38a]	6.31
C=CC(=O)N1CC2(CC(n3nc(-c4ccc(C(=O)N(C)CCOC)cc4)c(-c4c(Cl)c(C)cc5[nH]ncc45)c3C)C2)C1 (single isomer, unassigned) [Example 66b, 4-(1-(2-acryloyl-2-azaspiro[3.3]heptan-6-yl)-4-(5-chloro-6-methyl-1H-indazol-4-yl)-5-methyl-1H-pyrazol-3-yl)-N-(2-methoxyethyl)-N-methylbenzamide]	5.37
C=CC(=O)N1CC2(CC(n3nc(-c4cccc5c4cnn5C)c(-c4c(Cl)c(C)cc5[nH]ncc45)c3C)C2)C1 (single isomer, unassigned) [Example 29b]	4.82
C=CC(=O)N1CC2(CC(n3nc(-c4ccnc(C#N)c4)c(-c4c(Cl)c(C)cc5[nH]ncc45)c3C)C2)C1 (single isomer, unassigned) [Example 9a]	6.13
C=CC(=O)N1CC2(CC(n3nc(-c4ccc(CN5CCCS5(=O)=O)cc4)c(-c4c(Cl)c(C)cc5[nH]ncc45)c3C)C2)C1 (single isomer, unassigned) [Example 5b]	4.82
C=CC(=O)N1CC2(CC(n3nc(-c4ccc5[nH]ncc5c4)c(-c4c(Cl)c(C)cc5[nH]ncc45)c3C)C2)C1 (single isomer, unassigned) [Example 12b]	5.21
C=CC(=O)N1CC2(CC(n3nc(-c4cccnc4)c(-c4c(Cl)c(Cl)cc5[nH]ncc45)c3C(F)F)C2)C1 (single isomer, unassigned) [Example 85a]	6.47
C=CC(=O)N1CC2(CC(n3nc(-c4ccc(C(=O)NCCOC)cc4)c(-c4c(Cl)c(C)cc5[nH]ncc45)c3C)C2)C1 (single isomer, unassigned) [Example 62b, 4-(1-(2-acryloyl-2-azaspiro[3.3]heptan-6-yl)-4-(5-chloro-6-methyl-1H-indazol-4-yl)-5-methyl-1H-pyrazol-3-yl)-N-(2-methoxyethyl)benzamide]	4.71
C=CC(=O)N1CC2(CC(n3nc(-c4cnc(OC)nc4)c(-c4c(Cl)ccc5[nH]ncc45)c3C)C2)C1 (single isomer, unassigned) [Example 90b]	< 4.30
C=CC(=O)N1CC2(CC(n3nc(-c4ccc5c(c4)CS(=O)(=O)C5)c(-c4c(Cl)c(C)cc5[nH]ncc45)c3C)C2)C1 (single isomer, unassigned) [Example 72b]	4.62
C=CC(=O)N1CC2(CC(n3nc(-c4ccc5c(c4)CS(=O)(=O)C5)c(-c4c(Cl)c(C)cc5[nH]ncc45)c3C)C2)C1 (single isomer, unassigned) [Example 72a]	6.51
C=CC(=O)N1CC2(CC(n3nc(-c4cccnc4)c(-c4c(Cl)c(Cl)cc5[nH]ncc45)c3C(F)F)C2)C1 (single isomer, unassigned) [Example 85b]	4.67
C=CC(=O)N1CC2(CC(n3nc(-c4ccc5c(c4)ncn5C)c(-c4c(Cl)c(C)cc5[nH]ncc45)c3C)C2)C1 (single isomer, unassigned) [Example 30a]	6.99
C=CC(=O)N1CC2(CC(n3nc(-c4ccc5c(cnn5CCN(C)C)c4)c(-c4c(Cl)c(C)cc5[nH]ncc45)c3C)C2)C1 (single isomer, unassigned) [Example 15a]	7.80
C=CC(=O)N1CC2(CC(n3nc(-c4ccc(C(=O)NCCN(C)C)cc4)c(-c4c(Cl)c(C)cc5[nH]ncc45)c3C)C2)C1 (single isomer, unassigned) [Example 65a]	7.34
C=CC(=O)N1CC2(CC(n3nc(-c4ccn5ccnc5c4)c(-c4c(Cl)c(C)cc5[nH]ncc45)c3C)C2)C1 (single isomer, unassigned) [Example 33b]	< 4.30
C=CC(=O)N1CC2(CC(n3nc(-c4ccc(COCCOC)cc4)c(-c4c(Cl)c(C)cc5[nH]ncc45)c3C)C2)C1 (single isomer, unassigned) [Example 39b]	< 5.30
